Tests used:
TNF [1] = test: LPS-stimulated TNF expression in human PBMCs pre-treated with rolipram; type: cell-based
Experimental: PBMCs isolated from a healthy individual were pre-treated with rolipram (1, 5, and 10 μM) for 30 minutes and further stimulated with LPS (1 μg/ml) for 6 hours. Cell-free supernatants were analyzed for TNF expression by ELISA. Rol=rolipram. TNF=tumor necrosis factor-alpha, FLVs=fusogenic lipid vesicles.
The effect of chronic ethanol exposure on PDE4 gene expression and activity in human THP-1 and mouse RAW macrophages was evaluated next, as a mechanism for the decreased intracellular cAMP levels and the increased LPS-stimulated TNF.^4 PDE4 (predominantly present in monocytes) degrades and inactivates cAMP, with PDE4B playing a critical role in LPS signaling. It was shown that chronic alcohol increased LPS-inducible PDE4B mRNA expression (FIG. 2).

[2] = test system: α2-adrenoceptor-mediated xylazine/ketamine-induced anesthesia; test: Duration of xylazine/ketamine anesthesia (behavioral correlate of emesis); type: in vivo, male C57BL/6 mice; settings: free rolipram IV, mean of the 3 groups (1.6, 3.3 and 6.6 mg/kg bw); paired control 75.1±4.7 min
Experimental: FLVs-Rol=Fusogenic lipid vesicles-rolipram.
Safety pharmacology studies were conducted to determine the dose-response relationship of adverse effects observed by rolipram. The primary side effect of rolipram is the inhibition of PDE4 activity in the CNS, which leads to emesis in humans. The mechanism of the emetic response associated with PDE4 inhibitors is thought to produce a pharmacological response analogous to that of presynaptic α2-adrenoceptor inhibition, by elevating intracellular levels of cAMP in noradrenergic neurons. Consequently, PDE4 inhibitors remove an inhibitory mechanism that modulates the release of mediators (5-HT, substance P, noradrenaline) involved in the onset of the emetic reflex. […]
Since rodents are a non-vomiting species, examining rolipram-induced side effects in rodents is particularly difficult.^34-36 To circumvent this problem, a behavioral correlate of emesis model in mice was utilized.^35 In this model, rolipram is used to reverse the duration of α2-adrenoceptor-mediated xylazine/ketamine-induced anesthesia, which is temporally quantified by the return of the righting reflex. […] After 15 min, the mice were placed on a controlled heating pad in the dorsal recumbent position and the duration of anesthesia was determined by timing the return of the righting reflex. […]

[3] = test system: cholestatic liver injury and fibrosis; settings: rat, in vivo; cited from earlier work
TNF [4] = test: LPS mediated TNF expression in ethanol treated cells; type: cell-based; settings: data not shown
From the text: Studies in monocytes have shown that cAMP plays an important role in regulating TNF expression, and that the elevation of cellular cAMP suppresses TNF production. Therefore, the instant inventors evaluated (1) the effects of chronic ethanol exposure on the cellular levels of cAMP, and (2) TNF expression in monocytes in vitro and in rat primary hepatic Kupffer cells obtained from a clinically relevant enteral alcohol feeding model of alcoholic liver disease (ALD). […] Consistent with these decreased cAMP levels, ethanol led to an increase in LPS-inducible TNF mRNA expression (FIG. 2) and TNF protein, without any change in the TNF mRNA stability (data not shown). Enhancement of cellular cAMP with dbcAMP abrogated LPS mediated TNF expression in ethanol treated cells (data not shown).

alcoholic hepatitis = settings: human clinical studies; cited from earlier work
[5] = test system: liver injury and fibrosis; settings: several animal models; cited from earlier work
[6] = Encapsulation efficiency of rolipram in FLVs; type: physicochemical; settings: FLVs 10 mg/mL lipid, rolipram 0.75 mg/mL, diluted 5 or 10 times
Experimental: FIGS. 5A-C show the encapsulation efficiency percent of rolipram when 10 (A), 12.5 (B) and 15 mg/mL of FLV lipid (C) was hydrated with buffer containing 0.75 mg/mL of rolipram and diluted in water five or 10 times. The percentage of free rolipram in buffer was calculated by measuring the amount of free drug in buffer after FLVs in solution were filtered out. More than 50% of drug remained encapsulated with either of the dilutions over time. The amount of rolipram associated with FLVs appeared to fluctuate over time but it stabilized at the end of […]. FLVs=fusogenic vesicles.
After dilution the rolipram EE % of FLVs was similar when either excipient or no excipient was utilized. FLVs=fusogenic lipid vesicles, SOA=Sucrose octaacetate, SAIB=acetate isobutyrate.
To evaluate the ability of the FLVs to retain rolipram in an aqueous system, 0.75 mg/mL of rolipram was loaded into the lipid bilayer and internal liquid compartment of FLVs using four concentrations of lipid: 5, 10, 12.5, and 15 mg/ml. The rolipram encapsulation efficiency was quantified.
To evaluate the effect of dilution on encapsulation efficiency of FLVs-rolipram, different concentrations of FLV lipid (10, 12.5 and 15 mg/ML) were hydrated with the same amount of rolipram (0.75 mg/mL) and then diluted in water 5 and 10 times. Rolipram levels in the external buffer compartment were measured over a 90 min period. […]

[7] = test system: TNF production in RAW 264.7 cells; test: RAW cell assay: LPS-induced TNF production (ELISA); type: cell-based, mouse; settings: LPS 100 ng/mL 18 h, SAIB 0.5 mg/mL, FLVs 10 mg/mL lipid
Experimental: Cells were treated with SAIB (0.5 mg/mL), FLVs (10 mg/mL of lipid) with SAIB (FLV-SAIB) or FLVs-rolipram 0.75 mg/mL (FLV-Rol) without SAIB and stimulated with LPS (100 ng/mL) for 18 h. The effect of SAIB was evaluated by quantifying TNF production using an ELISA kit. SAIB alone appears to exert a beneficial effect, and FLVs with SAIB have a greater beneficial effect. FLVs=fusogenic lipid vesicles, LPS=endotoxin, SAIB=acetate isobutyrate.
Cells were treated with 0.73 mg/mL rolipram (Rol), FLVs only, or 0.73 mg/mL of FLVs-rolipram (FLVs-Rol) and stimulated with LPS (100 ng/mL) for 24 h. Control cells received treatment but no LPS. TNF in media was measured using an ELISA kit. UT=untreated cells, FLVs=fusogenic vesicles, LPS=endotoxin.
The effect of adding SAIB (0.5 mg/mL) to the vehicle was tested in vitro using RAW cells pulsed with LPS (100 ng/mL) and evaluated for TNF production. Rolipram (0.75 mg/mL) encapsulated in of 10 mg/mL of lipid without SAIB was used as a control.
An in vitro screening assay to evaluate the effectiveness of the FLVs-rolipram formulations was developed. The assay uses a murine macrophage cell line (RAW 264.7 cells), which produces high levels of TNF in response to LPS stimulation. […] After 24 h, TNF protein was measured in cell free supernatant by ELISA kit (FIG. 14).

[8] = test system: mouse aortic endothelial cells (MAECs); test: Fusion rate of rolipram-loaded vesicles to MAECs; type: cell-based
From the text: FIGS. 8A-B show the fusion rate of FLVs-Rolipram to RAW cells and mouse aortic endothelial cells (MAECs) in the presence or absence of excipients in the vehicle. Using fluorescent-labeled FLVs and a Nanoparticle Tracking Analysis instrument to quantify FLV numbers, the fusion rate of vesicles to RAW cells was quantified over time. (A) Lipid vesicles formulated with DOPC/POPA (3:2) loaded with rolipram (DOPC:POPA-R) fused to RAW cells at a faster rate than DOPC vesicles loaded with rolipram (DOPC). […] FLVs=fusogenic lipid vesicles, SOA=Sucrose octaacetate, SAIB=acetate isobutyrate.
Studies quantifying the fusion rate of vesicles loaded with rolipram to RAW or mouse aortic endothelial cells (MAECs) were performed. In the first experiment, the fusion rate of lipid vesicles to RAW cells using a highly fusogenic vesicle formulated with DOPC/POPA was compared to less fusogenic vesicle formulated with DOPC (FIG. 8A). […] In the second experiment, the fusion rate of FLVs to MAECs using the excipients sucrose octaacetate (SOA) or SAIB and the same vesicle lipid formulations as in the experiment above were performed. […] Also, SOA an excipient used to enhance the stability of FLVs-rolipram during storage appears to augment the fusion rate of FLVs.

COc1ccc(C2CNC(=O)C2)cc1OC1CCCC1 (stereo not drawn) [rolipram, 4-(3-Cyclopentyloxy-4-methoxy-phenyl) pyrrolidin-2-one]
TNF mRNA (TNF [1]; human PBMCs stimulated with LPS, data not shown): significantly downregulated
TNF protein (TNF [1]; human PBMCs, rolipram 1, 5, 10 μM 30 min, LPS 1 μg/ml 6 h, ELISA, dose-dependent): significantly downregulated
mean anesthesia time [2]: 48.6 ± 5.5 min
protection against cholestatic liver injury and fibrosis [3]: significant protection

CCCC(=O)Nc1ncnc2c1ncn2[C@@H]1O[C@@H]2COP(=O)(O)O[C@H]2[C@H]1OC(=O)CCC [dbcAMP]
LPS mediated TNF expression (TNF [4]): abrogated

CC(=O)CCCCn1c(=O)c2c(ncn2C)n(C)c1=O [Pentoxifylline]
mortality in patients with AH (alcoholic hepatitis): decreased mortality
liver injury and fibrosis [5]: attenuate liver injury and fibrosis

sucrose acetate isobutyrate [SAIB]
effect of excipient on rolipram encapsulation efficiency [6]: did not significantly alter
TNF production [7]: reduced the effect of LPS
effect of excipient on fusion rate of DOPC/POPA FLVs-rolipram to MAECs [8]: appeared to decrease the fusion rate

CC(=O)OC[C@H]1O[C@@](COC(C)=O)(O[C@H]2O[C@H](COC(C)=O)[C@@H](OC(C)=O)[C@H](OC(C)=O)[C@H]2OC(C)=O)[C@@H](OC(C)=O)[C@@H]1OC(C)=O [SOA, sucrose octaacetate]
effect of excipient on rolipram encapsulation efficiency [6]: did not significantly alter
effect of excipient on fusion rate of DOPC/POPA FLVs-rolipram to MAECs [8]: enhanced the fusion rate
